# Results as given in patent US11160809B2, “NK1-antagonist combination and method for treating synucleinopathies” (priority 2017, dated 2021).
# Like-named read-outs stand apart in the source and are kept apart here.
# Key:
# [1] = 5 mg/day of pramipexole, cited from earlier work
# [2] = molecular target: alpha-synuclein in human neuroblastoma SH-SY5Y cells (Homo sapiens, UniProt P37840); details: cited from earlier work
# [3] = tested on: dopaminergic neurons in a mouse PD model; details: cited from earlier work
# [4] = for MTD-1 (Pramipexole alone): Period 1
# Description: The starting dose of pramipexole was 0.5 mg and the dose was increased daily by 0.5 mg increments.
# When a subject reached FID-1 on pramipexole alone, the subject was washed out for at least 5 days, and then entered Period 2 of the study during which the subject received single daily oral doses of pramipexole starting at 0.5 mg and titrated upward by 0.5 mg increments, together with oral aprepitant (80 mg) until subjects again reached an intolerable dose defined as above. The FID on oral pramipexole plus oral aprepitant was referred to as FID-2.
# If a subject reached FID-2 during Period 2 at the same or lower dose than FID-1, and providing the investigator judged there were no safety issues and the subject was consenting, the subject received the same dose of pramipexole as the FID-2 dose together with a higher dose of oral aprepitant (120 mg) on the next day and the protocol specified that said subject should continue with the remainder of the dose titration with the higher dose of oral aprepitant (120 mg) until they reach the intolerable dose (FID2+). All other provisions of the protocol remained unchanged. Assessments were the same as those planned for the dose escalation day.
# In addition, a laboratory panel was taken at screening and at the end of the study.
# synuclein = synuclein (Homo sapiens, UniProt P37840); details: in vitro; cited from earlier work
# [5] = doses approved for motor symptoms of PD; 535 PD patients; cited from earlier work
# [6] = molecular target: human wild-type alpha-synuclein (Homo sapiens, UniProt P37840); details: in vitro; by H2O2 plus cytochrome c; cited from earlier work
structure (smiles),measurement,setting,value
"CCCN[C@H]1CCc2nc(N)sc2C1 [Pramipexole, (S)-6-propylamino-4,5,6,7-tetrahydro-1,3-benzothiazole-2-amine]",Nausea,[1],76 % of patients
same,Vomiting,[1],39 % of patients
same,Patients not able to complete the study,[1]; presumably because of intolerable GI adverse events,36 % of patients
same,Aggregation of alpha-synuclein,[2],inhibit the aggregation of alpha-synuclein
same,Toxic effects of rotenone on dopaminergic neurons,[3]; mouse PD model,inhibits the toxic effects of rotenone
same,Immunoreactivity for alpha-synuclein,[3]; rotenone mouse PD model,reducing immunoreactivity for alpha-synuclein
same,MTD-1 (Pramipexole alone),[4]; Subject 1001,2.0 mg
same,MTD-1 (Pramipexole alone),"[4]; Subject 1006, NA, not tolerated at 0.5 mg",NA (not tolerated
same,MTD-1 (Pramipexole alone),[4]; Subject 1007,4.0 mg
same,MTD-1 (Pramipexole alone),[4]; Subject 1008,1.0 mg
same,Reaching of FID-1,"[4]; human, in vivo",All subjects reached FID-1
same,Dose limiting toxicity,[4]; in vivo,gastro-intestinal adverse events
same,Synuclein oligomer formation,synuclein,diminishes synuclein oligomer formation
same,Neuroprotective (disease modifying) activity,[5],"failed to evidence neuroprotective (i.e., disease modifying) activity"
same,Oligomerization of human wild-type alpha-synuclein,[6],decreases the in vitro oligomerization
